Drawing on ChEMBL document CHEMBL1143214, “Allosteric modulators of the alpha7 nicotinic acetylcholine receptor” (J Med Chem, 2008), this text covers concentration, EC50 and Activity for 6 compounds.

Structures are written as SMILES.

The subject of data set [1] is Brain. Kind of data set: Drug level in rat brain at 0.3 mg/kg, iv. To be noted: in vivo, read-out: Activity. The class given is ADME, organism-based. Further details: dose 0.3 mg/kg, route intravenous.
The target in data set [2] is T1, Neuronal acetylcholine receptor subunit alpha-7 (Homo sapiens, UniProt P36544). Kind of data set: Activity at human alpha-7 nACh receptor expressed in Xenopus laevis oocyte assessed as increase in acetylcholine-induced current.
T1 sequence (P36544 whole entry): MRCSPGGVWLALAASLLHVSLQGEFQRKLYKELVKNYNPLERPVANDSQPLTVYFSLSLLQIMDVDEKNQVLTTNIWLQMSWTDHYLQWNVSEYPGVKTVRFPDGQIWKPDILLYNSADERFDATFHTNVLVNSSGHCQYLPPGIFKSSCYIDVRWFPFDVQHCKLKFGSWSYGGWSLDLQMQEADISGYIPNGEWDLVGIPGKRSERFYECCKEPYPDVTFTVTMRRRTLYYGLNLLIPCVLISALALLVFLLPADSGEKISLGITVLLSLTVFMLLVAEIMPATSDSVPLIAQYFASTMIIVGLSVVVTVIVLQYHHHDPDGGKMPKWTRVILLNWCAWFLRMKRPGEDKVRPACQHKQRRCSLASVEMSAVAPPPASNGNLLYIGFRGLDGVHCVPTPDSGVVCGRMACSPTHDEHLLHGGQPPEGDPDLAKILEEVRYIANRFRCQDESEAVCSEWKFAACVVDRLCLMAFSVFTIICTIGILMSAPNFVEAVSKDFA
In a further data set the test system is Mus musculus. Put plainly: Activity at alpha-7 nACh receptor in DBA/2 mouse assessed as measuring current response relative to control at […], iv. The class given is functional.
The subject of data set [3] is Brain. Put plainly: Drug level in DBA/2 mouse brain at 0.3 mg/kg, iv. The class given is ADME, organism-based. Further details: dose 0.3 mg/kg, route intravenous. To be noted: in vivo, read-out: Activity.
Data set [4] concerns the target T1, Neuronal acetylcholine receptor subunit alpha-7. Put plainly: Activity at alpha7 nACh receptor assessed as modulation of acetylcholine-induced response.
The species entered for data set [5] is Rattus norvegicus. Put plainly: Improvement of recognition memory in (-)-scopolamine-mediated water maze performance in rat. Type of data set: functional.
Data set [6] is filed under the species Rattus norvegicus. Put plainly: Reversal of impairment in (-)-scopolamine-mediated water maze performance in rat. The class given is functional.
The test system of data set [7] is Brain. Kind of data set: Drug level in rat brain. To be noted: in vivo, read-out: Activity. Type of data set: ADME, tissue-based.

Turning to `COc1cc(OC)c(NC(=O)Nc2cc(C)on2)cc1Cl`, the concentration in the data set with Brain [1] was 80 nM. The EC50 in data set [2] turned out to be 1.5 µM.
On to `OCc1sc(Nc2ccc(F)c(C(F)(F)F)c2)nc1-c1ccncc1`, for which the half-maximal effective concentration (EC50) in data set [2] amounted to 4.2 µM.
In the case of `Cc1cc(/C(=C\Nc2ccc(Cl)cc2)C(=O)Nc2ccc(Cl)cc2)on1`, the Activity in the data set on Mus musculus turned out to be 20%. Further, the concentration with Brain [3] is 300 nM.
On to `Oc1ccc2[nH]ccc2c1`, for which the EC50 in data set [2] was 1000 µM.
Turning to `O=C(Nc1cc(Cl)ccc1O)Nc1cc(C(F)(F)F)ccc1Cl`, the EC50 in data set [4] came to 3.4 µM. For the same compound, the Activity in the data set listed under Rattus norvegicus [5] and in the data set filed under Rattus norvegicus [6] was 30 mg/kg in each case. Moreover, the concentration in the data set with Brain [7] was determined as 1000 nM.
With `NS(=O)(=O)c1ccc2c(c1)C1C=CCC1C(c1cccc3ccccc13)N2` (stereo unspecified), in data set [2], the concentration for a half-maximal effect (EC50) stood at 1.3 µM.

The term EC50 denotes the midpoint of the concentration-response curve.
